Experiments:
[1] = Immobilised artificial membrane (IAM) chromatography; format: physicochemical; settings: extrapolated to 100% water; mean of four experiments
Description: IAM chromatography provided an experimental measure of substrate membrane affinity and phospholipid interaction. The IAM column (Regis Technologies Inc., Hichrom, Reading, UK; IAM.PC.DD2 10 cm x 4.6 mm ID column) was run under isocratic eluting conditions with the retention of all compounds determined under three mobile phase conditions: 10%, 20% and 30% acetonitrile in water, and from which the theoretical retention time in 100% water was calculated by linear regression. LogK^IAM values were calculated according to Eq. 2:2 LogK^IAM=LogTr−T0/T0
where Tr and T0 are respectively the retention times of the substrate in 100% water and of the unretained compound, i.e. eluting within the solvent front of 75 s in all experiments.

[2] = test system: P-gp (Mdr1a/1b) in mouse intestinal segments; experiment: Ussing chamber intestinal permeability, ileal segments Mdr1a/1b (+/+) vs (−/−); settings: for Mdr1a/1b (−/−) Permeability coefficient: P-gp knockout intestinal segments; for Mdr1a/1b (−/−) Permeability coefficient / Mdr1a/1b (+/+) Permeability coefficient: mucosal to serosal, 50 μM, 180 min; for Ratio Permeability (−/−): (+/+): intestinal Papp KO:WT; for Mdr1a/1b (+/+) Permeability coefficient: wild-type intestinal segments
Description: The bathing fluid for both mucosal and serosal surfaces (3 mL volume in each chamber) comprised oxygenated Krebs-Henseleit buffer maintained at 37°C (heating block) under stirred conditions (gas flow manifold). […] Any intestinal segments presenting an initial TEER of lower than 80 Ω.cm^2 were discarded prior to the experiment, likewise any segments whose TEER decreased by more than 10% over the course of the experiment were excluded.
Thereafter permeability coefficients were determined according to Eq. 4:4 ρ=dM/dt/A^∗C0

[3] = Multi-lamellar liposome vesicle (MLV) partitioning; format: physicochemical; settings: (C0−CS)/C0, 1 μg/mL, 4 h, 37°C, PBS pH 7.4
Description: MLVs were formed as previously described ([20]). Briefly, solutions of 8 mg phosphatidylcholine and 2 mg phosphatidylglycerol in 10 mL chloroform were completely dried to a lipid film (rotation under vacuum).
These preparations were then incubated at 37°C for 4 h under shaking conditions to allow equilibration of compound between the lipid and aqueous fractions. The MLVs were then pelleted and 100 μL of supernatant removed for analysis by radiometric or LC-MS/MS methods as described above. Partitioning into the MLVs was determined according to Eq. 3:3 MLVpartitioning=C0−CS/C0
where C0 is the initial compound concentration (1 μg/mL) and CS is the compound concentration present in the aqueous supernatant at the end of 4 h incubation.

mouse Bcrp = biological target: T1, mouse Bcrp (Mus musculus, UniProt Q7TMS5); experiment: Gentest ABC transporter membrane ATPase assay; format: biochemical; settings: for Vmax: ATPase, 0 indicates no enzyme turnover
T1 construct: purchased Corning (Gentest), Germany
T1 sequence (Q7TMS5 1-657): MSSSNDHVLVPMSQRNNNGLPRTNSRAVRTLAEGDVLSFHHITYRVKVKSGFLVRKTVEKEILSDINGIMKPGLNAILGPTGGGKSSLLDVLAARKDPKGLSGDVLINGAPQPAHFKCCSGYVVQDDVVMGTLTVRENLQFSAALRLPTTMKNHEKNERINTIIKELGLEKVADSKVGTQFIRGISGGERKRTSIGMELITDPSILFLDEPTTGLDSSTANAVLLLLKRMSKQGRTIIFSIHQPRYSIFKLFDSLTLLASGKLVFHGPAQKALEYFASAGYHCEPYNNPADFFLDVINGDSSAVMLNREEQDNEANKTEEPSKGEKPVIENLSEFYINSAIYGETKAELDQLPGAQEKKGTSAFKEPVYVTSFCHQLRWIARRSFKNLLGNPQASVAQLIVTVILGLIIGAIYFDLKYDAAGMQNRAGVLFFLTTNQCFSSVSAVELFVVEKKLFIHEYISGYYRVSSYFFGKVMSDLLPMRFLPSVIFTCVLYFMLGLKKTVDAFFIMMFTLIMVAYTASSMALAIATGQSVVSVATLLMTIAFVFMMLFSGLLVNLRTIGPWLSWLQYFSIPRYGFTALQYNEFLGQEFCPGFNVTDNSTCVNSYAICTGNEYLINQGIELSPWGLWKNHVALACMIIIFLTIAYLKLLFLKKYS
Description: (§1) The Gentest ATPase assay (Corning, Germany) was used to investigate the binding kinetics of the panel of P-gp substrates against membranes constituted to display human MDR1, mouse Mdr1a, mouse Mdr1b and mouse Bcrp. The assays measure the accumulation of inorganic phosphate (absorbance at 800 nm) produced in the breakdown of ATP to ADP. […] The assays were used in accordance with the manufacturer’s protocol to calculate (GraphPad Prism) the Michaelis-Menten parameters Km and VMAX. For the assay test compounds were serially diluted to produce an assay concentration range of 0–300 μM with the kinetics of ATP turnover examined over 30 min at 37°C.

[4] = test system: P-glycoprotein (Mdr1a/Mdr1b) in isolated perfused mouse lung; experiment: Isolated perfused mouse lung (IPML) airway-to-perfusate absorption, Mdr1a/1b (+/+) vs (−/−); settings: for Mdr1a/1b (+/+) ‘F’ estimate by model fit [95% CI) / Mdr1a/1b (-/-) ‘F’ estimate by model fit [95% CI) / Ratio AUCs (-/-) : (+/+) / Mdr1a/1b (+/+) % Deposited Dose absorbed / Mdr1a/1b (-/-) % Deposited Dose absorbed: male, mouse, 50 μM; for Mdr1a/1b (+/+) % Deposited Dose absorbed / Mdr1a/1b (-/-) % Deposited Dose absorbed: 30 min
Description: The atria and the lower half of the heart were cut to allow the free flow of perfusate. The lungs were removed and suspended vertically in a custom water-jacketed glass thorax (Radleys, Essex, UK) maintained at 37°C.
Following dosing of compound into the IPML airways serial samples (250 μL) were collected for bioanalysis from the 10 mL recirculating perfusate reservoir. Each sample collected from the reservoir was replaced with an equal volume of fresh warmed, oxygenated perfusate. Upon termination of the experiment the dose solutions, apparatus washings and perfusate samples were collected for mass balance calculations enabling determination of the actual total dose delivered to the lungs.
Radioactive compounds were directly analysed by liquid scintillation counting. Volumes of 50 μL perfusate samples were mixed with 3 mL of Scintisafe 3 Liquid Scintillation Fluid (Fisher, UK) and transferred to vials for scintillation counting using a TriCarb 2900TR (Packard Bioscience, USA).
After accounting for the mass of compound removed at each sample point, plots of the cumulative ‘%deposited dose absorbed’ versus ‘time’ were generated and subject to nonlinear regression analysis according to a first-order absorption one-compartment accumulating model (Eq. 1) to generate estimates for the extent (F) and rate (Ka) of absorption from the IPML airways to the recirculating perfusate.
The data was also subject to standard non-compartmental analysis, specifically Area Under Curve (AUC0–30 min) of ‘%deposited dose absorbed’ versus ‘time’ (units: %Dose.min) and reflecting for the exclusively accumulating perfusate ‘compartment’ the exposure arising from the IPML absorption process alone.

mouse Mdr1b = mouse Mdr1b (Mus musculus, UniProt P06795); experiment: Gentest ABC transporter membrane ATPase assay; settings: 0–300 μM, 30 min, 37°C
Description: as §1

mouse Mdr1a = mouse Mdr1a (Mus musculus, UniProt P21447); experiment: Gentest ABC transporter membrane ATPase assay; settings: 0–300 μM, 30 min, 37°C
Description: as §1

human MDR1 = human MDR1 (Homo sapiens, UniProt P08183); experiment: Gentest ABC transporter membrane ATPase assay; settings: ATPase, 0–300 μM, 30 min, 37°C
[5] = design: method as in PMID 12761811; settings: cited from earlier work
Caco-2 cell model = test system: Caco-2 cell model; design: method as in PMID 12761811; settings: cited from earlier work
P-gp = test system: P-gp; design: method as in PMID 23670704; settings: IPRL and IPML models; cited from earlier work
[6] = design: method as in PMID 4654354; settings: cited from earlier work

mouse Mdr1a, sequence (P21447 whole entry): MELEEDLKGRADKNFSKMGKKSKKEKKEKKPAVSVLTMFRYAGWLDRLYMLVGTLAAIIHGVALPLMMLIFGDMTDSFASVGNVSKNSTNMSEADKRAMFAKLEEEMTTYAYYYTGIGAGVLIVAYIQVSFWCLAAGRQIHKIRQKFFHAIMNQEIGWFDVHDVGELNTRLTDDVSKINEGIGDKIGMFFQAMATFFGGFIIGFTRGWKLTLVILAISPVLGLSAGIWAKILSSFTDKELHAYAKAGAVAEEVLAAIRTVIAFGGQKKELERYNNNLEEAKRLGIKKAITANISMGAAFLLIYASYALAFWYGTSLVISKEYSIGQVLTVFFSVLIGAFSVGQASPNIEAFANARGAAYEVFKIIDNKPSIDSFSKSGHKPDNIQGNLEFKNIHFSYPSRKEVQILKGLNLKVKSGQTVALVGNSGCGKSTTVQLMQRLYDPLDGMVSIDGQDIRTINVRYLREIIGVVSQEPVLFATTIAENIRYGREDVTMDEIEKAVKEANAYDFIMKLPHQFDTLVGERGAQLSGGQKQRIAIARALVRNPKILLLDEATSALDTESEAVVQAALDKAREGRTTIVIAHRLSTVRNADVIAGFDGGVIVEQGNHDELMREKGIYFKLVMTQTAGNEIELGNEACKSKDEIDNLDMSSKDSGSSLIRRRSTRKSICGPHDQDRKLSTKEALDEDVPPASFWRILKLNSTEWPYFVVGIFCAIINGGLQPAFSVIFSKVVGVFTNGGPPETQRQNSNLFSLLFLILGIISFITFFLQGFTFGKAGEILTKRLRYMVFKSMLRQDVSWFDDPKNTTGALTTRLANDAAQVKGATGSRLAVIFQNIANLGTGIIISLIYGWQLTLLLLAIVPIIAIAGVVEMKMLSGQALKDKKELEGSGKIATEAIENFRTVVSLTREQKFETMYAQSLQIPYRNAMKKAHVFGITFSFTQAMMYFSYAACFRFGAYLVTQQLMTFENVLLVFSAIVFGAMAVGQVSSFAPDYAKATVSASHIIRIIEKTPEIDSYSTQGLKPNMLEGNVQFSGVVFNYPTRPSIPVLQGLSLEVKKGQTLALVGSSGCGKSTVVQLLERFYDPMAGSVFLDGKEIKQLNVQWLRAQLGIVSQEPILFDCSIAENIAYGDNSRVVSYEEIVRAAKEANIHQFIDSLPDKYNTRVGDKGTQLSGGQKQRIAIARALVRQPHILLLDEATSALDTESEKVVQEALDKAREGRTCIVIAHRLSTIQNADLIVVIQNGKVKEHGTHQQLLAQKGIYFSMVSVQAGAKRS
human MDR1, sequence (P08183 whole entry): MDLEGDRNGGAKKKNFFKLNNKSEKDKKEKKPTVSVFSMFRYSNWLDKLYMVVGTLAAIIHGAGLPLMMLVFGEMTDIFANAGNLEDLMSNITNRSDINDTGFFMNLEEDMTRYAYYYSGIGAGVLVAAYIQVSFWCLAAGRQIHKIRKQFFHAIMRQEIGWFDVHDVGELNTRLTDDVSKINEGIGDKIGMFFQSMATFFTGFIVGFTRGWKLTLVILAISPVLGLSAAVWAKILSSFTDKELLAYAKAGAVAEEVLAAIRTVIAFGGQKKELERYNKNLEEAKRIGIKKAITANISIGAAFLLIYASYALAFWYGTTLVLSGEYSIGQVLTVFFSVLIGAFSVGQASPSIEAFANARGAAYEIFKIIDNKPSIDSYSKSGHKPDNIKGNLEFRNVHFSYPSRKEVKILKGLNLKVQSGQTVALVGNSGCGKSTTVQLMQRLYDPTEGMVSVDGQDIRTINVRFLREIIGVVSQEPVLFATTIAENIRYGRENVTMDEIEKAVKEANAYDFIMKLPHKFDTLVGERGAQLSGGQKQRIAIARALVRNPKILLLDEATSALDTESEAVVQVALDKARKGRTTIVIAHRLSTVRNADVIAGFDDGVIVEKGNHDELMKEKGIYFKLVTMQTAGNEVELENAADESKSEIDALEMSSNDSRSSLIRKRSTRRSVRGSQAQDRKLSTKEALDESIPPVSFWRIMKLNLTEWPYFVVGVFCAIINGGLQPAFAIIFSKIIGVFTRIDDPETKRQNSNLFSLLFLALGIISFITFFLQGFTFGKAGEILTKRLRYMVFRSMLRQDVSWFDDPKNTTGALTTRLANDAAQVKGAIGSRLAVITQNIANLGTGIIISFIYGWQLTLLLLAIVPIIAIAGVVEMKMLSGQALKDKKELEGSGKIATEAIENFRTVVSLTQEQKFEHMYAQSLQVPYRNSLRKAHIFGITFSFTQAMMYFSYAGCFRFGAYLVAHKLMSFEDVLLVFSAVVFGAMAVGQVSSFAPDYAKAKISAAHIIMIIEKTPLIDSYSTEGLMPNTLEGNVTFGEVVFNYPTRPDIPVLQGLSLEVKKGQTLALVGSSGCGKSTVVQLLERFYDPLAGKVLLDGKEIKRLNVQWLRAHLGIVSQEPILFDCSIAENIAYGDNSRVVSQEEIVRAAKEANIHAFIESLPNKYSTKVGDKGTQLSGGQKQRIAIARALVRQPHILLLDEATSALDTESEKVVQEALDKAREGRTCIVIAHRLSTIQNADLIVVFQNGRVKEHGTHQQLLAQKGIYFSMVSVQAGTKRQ
mouse Mdr1b, sequence (P06795 whole entry): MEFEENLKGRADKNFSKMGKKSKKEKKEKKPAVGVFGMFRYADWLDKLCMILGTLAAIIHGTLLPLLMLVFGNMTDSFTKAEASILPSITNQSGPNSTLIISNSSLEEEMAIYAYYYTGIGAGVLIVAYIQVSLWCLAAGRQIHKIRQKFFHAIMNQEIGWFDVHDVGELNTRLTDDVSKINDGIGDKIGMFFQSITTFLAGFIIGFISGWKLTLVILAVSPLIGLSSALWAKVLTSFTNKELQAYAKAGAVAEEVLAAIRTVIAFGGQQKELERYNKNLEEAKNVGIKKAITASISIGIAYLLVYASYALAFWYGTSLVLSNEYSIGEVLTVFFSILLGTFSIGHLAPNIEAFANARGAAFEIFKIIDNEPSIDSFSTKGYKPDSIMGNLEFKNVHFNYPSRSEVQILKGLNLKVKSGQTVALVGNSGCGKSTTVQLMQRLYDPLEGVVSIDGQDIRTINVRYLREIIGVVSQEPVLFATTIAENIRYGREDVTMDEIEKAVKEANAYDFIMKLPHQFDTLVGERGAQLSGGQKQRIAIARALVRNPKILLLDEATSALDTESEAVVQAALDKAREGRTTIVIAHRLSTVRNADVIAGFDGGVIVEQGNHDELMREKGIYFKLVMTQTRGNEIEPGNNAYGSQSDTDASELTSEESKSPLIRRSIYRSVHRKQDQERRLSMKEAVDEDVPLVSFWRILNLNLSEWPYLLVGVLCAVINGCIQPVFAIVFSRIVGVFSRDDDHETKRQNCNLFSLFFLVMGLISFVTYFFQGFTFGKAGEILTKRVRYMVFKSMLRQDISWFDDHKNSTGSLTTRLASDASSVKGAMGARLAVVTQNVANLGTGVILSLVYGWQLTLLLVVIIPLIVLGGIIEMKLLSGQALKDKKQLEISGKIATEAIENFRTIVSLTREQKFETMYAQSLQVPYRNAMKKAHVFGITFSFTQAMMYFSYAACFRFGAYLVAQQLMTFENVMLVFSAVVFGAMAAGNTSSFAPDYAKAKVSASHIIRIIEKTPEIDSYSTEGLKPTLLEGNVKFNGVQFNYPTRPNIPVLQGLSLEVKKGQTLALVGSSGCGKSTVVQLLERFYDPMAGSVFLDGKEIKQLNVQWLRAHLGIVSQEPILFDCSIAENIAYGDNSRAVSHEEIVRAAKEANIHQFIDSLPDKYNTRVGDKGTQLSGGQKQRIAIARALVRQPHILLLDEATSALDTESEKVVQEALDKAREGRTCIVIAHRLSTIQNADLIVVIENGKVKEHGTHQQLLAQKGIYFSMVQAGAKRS

Compound | LogK^IAM [1] | Mdr1a/1b (−/−) Permeability coefficient [2] | MLV Partitioning [3] | Vmax (mouse Bcrp) [µM/min] | Mdr1a/1b (+/+) Permeability coefficient [2] | Group (impact of Mdr1a/1b knockout on IPML absorption) [4] | Mdr1a/1b (+/+) ‘F’ estimate by model fit [95% CI) [4] | Mdr1a/1b (-/-) ‘F’ estimate by model fit [95% CI) [4] | Mdr1a/1b (+/+) % Deposited Dose absorbed [4] [%] | Mdr1a/1b (-/-) % Deposited Dose absorbed [4] [%] | Vmax (mouse Mdr1b) [µM/min] | Vmax (mouse Mdr1a) [µM/min] | further results
CCN(CC)CCCC(C)Nc1ccnc2cc(Cl)ccc12 (stereo not shown) [Chloroquine, chloroquine] | 1.43 | 23.39 ± 4.18 cm/s (x10^−6) | – | – | – | – | – | – | – | – | – | – | –
O=c1[nH]c2ccccc2n1CCCN1CCC(n2c(=O)[nH]c3cc(Cl)ccc32)CC1 [Domperidone, domperidone] | 1.33 | – | 0.92 | – | – | – | – | – | – | – | – | – | –
CN1CCC[C@@H]1Cc1c[nH]c2ccc(CCS(=O)(=O)c3ccccc3)cc12 [Eletriptan, eletriptan] | 1.46 | 11.04 ± 2.17 cm/s (x10^−6) | 0.94 | 0 | 4.90 ± 2.51 cm/s (x10^−6) | GROUP B | 18.5 [16.5 to 20.5] | 25.8 [23.6 to 27.9] | 17.9 | 26.6 | – | – | Ratio Permeability (−/−): (+/+) [2]: 2.26; Ratio AUCs (-/-) : (+/+) [4]: 1.39
CC[C@H]1OC(=O)[C@H](C)[C@@H](O[C@H]2C[C@@](C)(OC)[C@@H](O)[C@H](C)O2)[C@H](C)[C@@H](O[C@@H]2O[C@H](C)C[C@H](N(C)C)[C@H]2O)[C@](C)(O)C[C@@H](C)C(=O)[C@H](C)[C@@H](O)[C@]1(C)O [Erythromycin, erythromycin] | 0.88 | 13.70 ± 4.54 cm/s (x10^−6) | 0.46 | 0 | 3.02 ± 1.15 cm/s (x10^−6) | GROUP A | – | – | 55.5 | 54.1 | 48.5 | 28.4 | –
CCc1cc2c(cc1CC)CC(NC[C@H](O)c1ccc(O)c3[nH]c(=O)ccc13)C2 [Indacaterol, indacaterol] | 1.23 | 29.22 ± 4.40 cm/s (x10^−6) | 0.92 | 0 | 15.2 ± 2.79 cm/s (x10^−6) | GROUP B | 29.3 [25.5 to 33.1] | 40.6 [36.7 to 44.5] | 27.6 | 37.3 | 132 | 119 | Vmax (human MDR1): 81.1 µM/min; Ratio Permeability (−/−): (+/+) [2]: 1.92; Ratio AUCs (-/-) : (+/+) [4]: 1.37
O=C1c2c(O)ccc(O)c2C(=O)c2c(NCCNCCO)ccc(NCCNCCO)c21 [Mitoxantrone, mitoxantrone] | 1.13 | 13.70 ± 2.69 cm/s (x10^−6) | 0.59 | 4.79 | 4.69 ± 1.06 cm/s (x10^−6) | GROUP A | 26.4 [21.9 to 30.9] | 24.9 [20.8 to 28.9] | 25.1 | 23.3 | 35.0 | 27.5 | interaction with Bcrp (ATP turnover) (mouse Bcrp; mouse Bcrp membrane model): showed evidence of interactions with Bcrp
COc1ccc(C[C@H](N)C(=O)N[C@H]2[C@@H](O)[C@H](n3cnc4c(N(C)C)ncnc43)O[C@@H]2CO)cc1 [Puromycin, puromycin] | 1.31 | 14.95 ± 2.33 cm/s (x10^−6) | 0.62 | 0 | 5.83 ± 2.38 cm/s (x10^−6) | GROUP A | 48.2 [43.7 to 52.8] | 56.1 [48.1 to 64.1] | 46.9 | 49.3 | 31.5 | 16.5 | Vmax (human MDR1): 19.6 µM/min; Ratio Permeability (−/−): (+/+) [2]: 2.56; Ratio AUCs (-/-) : (+/+) [4]: 1.01
OCc1cc(C(O)CNCCCCCCOCCCCc2ccccc2)ccc1O (stereo not shown) [Salmeterol, salmeterol] | 1.60 | 18.33 ± 2.38 cm/s (x10^−6) | 0.80 | 0 | 15.8 ± 2.16 cm/s (x10^−6) | GROUP B | 42.9 [34.6 to 47.2] | 57.3 [48.3 to 66.3] | 36.7 | 48.7 | 38.2 | 27.5 | Vmax (human MDR1): 24.4 µM/min; Ratio Permeability (−/−): (+/+) [2]: 1.16; Ratio AUCs (-/-) : (+/+) [4]: 1.37
O=C(O)c1cc(=O)c2c(OCC(O)COc3cccc4oc(C(=O)O)cc(=O)c34)cccc2o1 [cromolyn] | – | – | – | – | – | – | – | – | – | – | – | – | permeability across the lung [5]: high permeability; Papp (Caco-2 cell model): < 1 ×10⁻⁶ cm/s
CN(C)C(=O)C(CCN1CCC(O)(c2ccc(Cl)cc2)CC1)(c1ccccc1)c1ccccc1 [loperamide] | – | – | – | – | – | – | – | – | – | – | – | – | effect of P-gp inhibition (GF120918) upon pulmonary absorption (P-gp): affected
CCCCc1nc(Cl)c(CO)n1Cc1ccc(-c2ccccc2-c2nn[nH]n2)cc1 [losartan] | – | – | – | – | – | – | – | – | – | – | – | – | extent of pulmonary absorption ([5]; nebulised solutions, anaesthetised rats, mM concentrations): 92%; t^1/2absorption ([5]; nebulised solutions, anaesthetised rats): 5 min
OC[C@@H](O)[C@@H](O)[C@H](O)[C@H](O)CO [mannitol] | – | – | – | – | – | – | – | – | – | – | – | – | absorbed from the lung [6]: 50 % of administered dose; absorbed from the small intestine [6]: < 2%; Mdr1a/1b (+/+) % Deposited Dose absorbed ([4]; FVB/B6 Mdr1a/1b(+/+) wild-type): 44.3 ± 9.4%; Mdr1a/1b (-/-) % Deposited Dose absorbed ([4]; FVB/B6 Mdr1a/1b(−/−) knockout): 43.2 ± 10.2%
CC(C)(C)NCC(O)c1cc(O)cc(O)c1 (stereo not shown) [terbutaline] | – | – | – | – | – | – | – | – | – | – | – | – | permeability across the lung [5]: high permeability; Papp (Caco-2 cell model): < 1 ×10⁻⁶ cm/s
inulin | – | – | – | – | – | – | – | – | – | – | – | – | absorbed from the lung [6]: 17 % of administered dose; absorbed from the small intestine [6]: < 2%

From PMC5736782, “The Differential Absorption of a Series of P-Glycoprotein Substrates in Isolated Perfused Lungs from Mdr1a/1b Genetic Knockout Mice can be Attributed to Distinct Physico-Chemical Properties: an Insight into Predicting Transporter-Mediated, Pulmonary Specific Disposition” (Pharmaceutical Research, 2017)
